Measurements published in patent US10793556B2, “8-amino-2-oxo-1,3-diaza-spiro-[4.5]-decane derivatives” (Grünenthal GmbH, priority 2016, dated 2020).

Biological target: human mu-opioid peptide (hMOP) receptor (Homo sapiens (Human), UniProt P35372)
Assay: hMOP receptor binding assay (SPA, [3H]naloxone)

human mu-opioid peptide (hMOP) receptor, sequence (P35372 whole entry): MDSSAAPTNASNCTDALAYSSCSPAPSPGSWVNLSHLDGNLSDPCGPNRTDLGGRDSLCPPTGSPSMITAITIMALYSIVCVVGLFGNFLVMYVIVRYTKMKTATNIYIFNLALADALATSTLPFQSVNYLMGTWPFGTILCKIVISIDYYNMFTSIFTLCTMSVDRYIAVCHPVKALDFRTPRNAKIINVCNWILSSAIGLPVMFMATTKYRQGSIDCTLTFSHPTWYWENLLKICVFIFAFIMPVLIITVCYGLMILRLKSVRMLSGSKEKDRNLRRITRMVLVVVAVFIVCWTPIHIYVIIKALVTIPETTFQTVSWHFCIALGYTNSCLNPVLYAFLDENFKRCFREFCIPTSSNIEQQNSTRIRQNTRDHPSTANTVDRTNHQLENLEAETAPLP

CN(C)[C@]1(c2ccccc2)CC[C@]2(CC1)CN(CC(C)(C)N1C(=O)CCC1=O)C(=O)N2CC1CC1 [SC_4084, CIS-1-[2-[1-(Cyclopropyl-methyl)-8-dimethylamino-2-oxo-8-phenyl-1,3-diazaspiro[4.5]decan-3-yl]-1,1-dimethyl-ethyl]-pyrrolidine-2,5-dione]
Ki: 2470 nM
